Structures are written as SMILES. Read-outs that look alike come from different tables or passages of the source.

One series concerns anti-3MGA-mAb. The experiment in a line: competitive ELISA using anti-3MGA-mAb. The class given is binding. The conditions noted are these: competitive ELISA in aqueous solution, 3MGA calibrated to 100%. As to the method:
ELISA System Using anti-3MGA-mAb
An ELISA system to measure the cross-reactivity of compounds 3 and 4 by using 3MGA-HSA-conjugate and anti-3MGA-mAb was used according to the protocol in our previous study ([Ishiuchi et al., 2019]). To measure the concentration of 3 in human serum samples using the system ELISA, 3 was dissolved in normal human serum (Sigma) to prepare standard solutions (16 nM–2.0 µM) and the samples or standard solutions (each 10 µl) and ethanol (40 µl) were well mixed and centrifuged (1.2 × 10^4 × g for 7 min). The supernatant was dried up under nitrogen flow at 40°C overnight, and the residue was dissolved in Can Get Signal® Solution 1 (Toyobo Co., Ltd: Osaka, Japan) (50 µl). […] When the observed values were more than 400 nM, the deproteinized serum samples were further diluted with Can Get Signal® Solution 1 for two or four times and analyzed again to observe values from 15.6 to 400 nM.
FIGURE 4 Development of enzyme-linked immunosorbent assay (ELISA) system to measure concentrations of 3 in human serum samples using anti-18β-glycyrrhetyl-3-O-glucuronide (3MGA)-monoclonal antibody (mAb). […] Standard lines between absorbance and concentrations of compound 3 are shown (D) Accuracy of ELISA system in measuring concentrations of 3 in human serum samples using anti-3MGA-mAb. Human serum samples were deproteinized, and concentration of 3 was measured using ELISA system. […]
(An ELISA detects its analyte on a solid surface through an enzyme-linked reagent.)

The target in a further series is T1, human OAT3 (Homo sapiens, UniProt Q8TCC7).
T1 construct: expressed in transfected cells; host or cells: HEK293 cells, pCI-neo vector
T1 sequence (Q8TCC7 1-542): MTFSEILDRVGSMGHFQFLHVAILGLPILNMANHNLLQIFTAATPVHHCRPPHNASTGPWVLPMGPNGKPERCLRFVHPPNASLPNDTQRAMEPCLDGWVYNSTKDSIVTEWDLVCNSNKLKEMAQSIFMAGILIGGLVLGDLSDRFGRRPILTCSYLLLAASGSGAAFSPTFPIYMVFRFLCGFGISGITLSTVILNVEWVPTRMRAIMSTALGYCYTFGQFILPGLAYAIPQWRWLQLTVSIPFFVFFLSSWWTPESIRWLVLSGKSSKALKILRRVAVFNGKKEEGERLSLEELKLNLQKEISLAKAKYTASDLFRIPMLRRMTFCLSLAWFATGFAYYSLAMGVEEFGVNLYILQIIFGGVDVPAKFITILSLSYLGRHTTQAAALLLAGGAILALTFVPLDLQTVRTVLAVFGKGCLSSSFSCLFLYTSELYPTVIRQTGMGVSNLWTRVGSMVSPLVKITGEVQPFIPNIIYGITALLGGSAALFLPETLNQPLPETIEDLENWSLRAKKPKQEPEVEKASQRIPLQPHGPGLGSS
Description: uptake into HEK293 cells transfected with OAT3. The class given is in vitro ADME. The conditions noted are these: HEK293, EHBR plasma, 37°C, 15 min. An excerpt:
Uptake of Compound 4 by Rat Kidney Slices and Cells Expressing OAT1 and 3
For the uptake study of 4 into rat kidney slices, we used the samples obtained in our previous study ([Ishiuchi et al., 2019]). For the uptake study of 4 into the cells transiently expressing OAT1 and OAT3, we used the same protocol as in our previous study ([Makino et al., 2012]). cDNAs encoding human OAT1 and OAT3 inserted into pGH19 were generously supplied by Prof. Mitsuru Sugawara (Hokkaido University, Sapporo, Japan), and then subcloned into a pCI-neo mammalian expression vector (Promega, Madison, WI, United States). We used the same pooled plasma of male EHBRs orally treated with GA for 12 h used in our previous study ([Ishiuchi et al., 2019]).
FIGURE 2 Inhibitory effects of compound 4 on type-2 11β-hydroxysteroid dehydrogenase (11β-HSD2) using rat kidney microsome (A), and the uptake of 4 into rat kidney slices (B) or into HEK293 cells transfected with organic anion transporter (OAT) 1 (C) or OAT3 (D). […] Then, the amount of [^3H] cortisol was measured. […] Concentrations of 4 in kidney slice homogenates were measured using liquid chromatography-tandem mass spectrometry (LC-MS/MS). **p < 0.01 vs 4°C group using Student’s t-test (C) Male EHBRs were orally treated with GA (200 mg/kg) and their plasma samples were collected […] after treatment. […] Then, concentrations of 4 in cells were measured using LC-MS/MS. […]

Series [1] in a line: pharmacokinetics of GA metabolites in EHBRs orally treated with GA. In kind it is in vivo, Eisai hyperbilirubinuria rats (EHBRs). The conditions noted are these: Eisai hyperbilirubinuria rat (EHBR), plasma, oral GA 200 mg/kg, 24 h after treatment, read-out: concentration in plasma sample.

As for `CC1(C)[C@@H](OS(=O)(=O)O)CC[C@]2(C)[C@H]3C(=O)C=C4[C@@H]5C[C@@](C)(C(=O)O[C@@H]6O[C@H](C(=O)O)[C@@H](O)[C@H](O)[C@H]6O)CC[C@]5(C)CC[C@@]4(C)[C@]3(C)CC[C@@H]12` [Compound 4, 18β-glycyrrhetyl-3-O-sulfate-30-O-glucuronide], the “cross-reactivity to anti-3MGA-mAb” value in the series on anti-3MGA-mAb was found to be 40%. The “uptake into cells expressing OAT3 vs mock cells” value on human OAT3 is “significantly higher”. Also, the concentration at 24 h in series [1] (female EHBRs) was 115 µM; in series [1] (male EHBRs), 189 µM.

For the origin of these results see article PMC8165744, “Identification of an Alternative Glycyrrhizin Metabolite Causing Liquorice-Induced Pseudohyperaldosteronism and the Development of ELISA System to Detect the Predictive Biomarker” (Frontiers in Pharmacology, 2021).
